Reference: PubChem BioAssay (NCI)
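Values below derive from 48-hour exposures of cells grown in 96-well plates, with endpoints linearly interpolated between the two concentrations bracketing the appropriate inhibition level. TGI: concentration producing complete growth inhibition.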

What was measured:
Assay in all cases: NCI anticancer screen, dose series, 48 h
[1] = test system: SK-MEL-5 melanoma
[2] = test system: PC-3 prostate
[3] = test system: SNB-19 CNS
[4] = test system: A498 renal
[5] = test system: MDA-N
[6] = test system: HOP-92 NSCLC
[7] = test system: OVCAR-8 ovarian
[8] = test system: SN12C renal
[9] = test system: OVCAR-4 ovarian
[10] = test system: NCI-H23 lung
[11] = test system: ACHN renal
[12] = test system: MDA-MB-231 breast
[13] = test system: RPMI-8226 leukemia
[14] = test system: HOP-62 NSCLC
[15] = test system: UACC-257 melanoma
[16] = test system: SW-620 colon
[17] = test system: K-562 leukemia
[18] = test system: DU-145 prostate
[19] = test system: NCI-H226 lung
[20] = test system: SF-268 CNS

SMILES	TGI [1]	TGI [2]	TGI [3]	TGI [4]	TGI [5]	TGI [6]	TGI [7]	TGI [8]	TGI [9]	TGI [10]	TGI [11]	TGI [12]	TGI [13]	TGI [14]	TGI [15]	TGI [16]	TGI [17]	TGI [18]	TGI [19]	TGI [20]
CC(=O)Nc1ccc(N2C(=O)/C(=C\c3cccc(Oc4ccccc4)c3)S(=O)(=O)C2c2ccccc2)cc1 (stereo not given)	> 100 µM	> 100 µM	> 100 µM	> 100 µM	95.3 µM	> 100 µM	> 100 µM	> 100 µM	> 100 µM	> 100 µM	> 100 µM	> 100 µM	66.8 µM	> 100 µM	> 100 µM	> 100 µM	> 100 µM	> 100 µM	> 100 µM	
CC(C)CC1C(=O)NCCC(NC(=O)C(Cc2ccc(OC(C)(C)C)cc2)NC(=O)OC(C)(C)C)C(=O)NC(Cc2ccccc2)C(=O)NC(Cc2ccccc2)NC1=O (stereo not given)	85.9 µM	46.1 µM	42.4 µM		> 100 µM	32.1 µM	20.6 µM	39.8 µM	34.6 µM	33.7 µM	23.3 µM	19.9 µM	54.4 µM	37.7 µM	26.2 µM	13.6 µM	10.3 µM	> 100 µM	21.2 µM	36.1 µM
CC1(C)CC(=O)c2[nH]c3ccccc3c2CC(=O)NCCc2cn1cn2	> 100 µM	> 100 µM	> 100 µM	> 100 µM	> 100 µM	> 100 µM	> 100 µM	> 100 µM	> 100 µM	> 100 µM	> 100 µM	> 100 µM			> 100 µM	> 100 µM	> 100 µM	> 100 µM	> 100 µM	> 100 µM
OCC1OC(c2cccc3cc(O)c(O)cc23)CC1O (stereo not given)		> 100 µM	> 100 µM	> 100 µM	> 100 µM	> 100 µM	> 100 µM	> 100 µM	> 100 µM		> 100 µM	> 100 µM	> 100 µM	> 100 µM	> 100 µM	> 100 µM	> 100 µM	> 100 µM	> 100 µM	> 100 µM
CC(C)(C)OC(=O)N1CCc2[nH][nH]c(=O)c2C1		> 100 µM	> 100 µM	> 100 µM	> 100 µM	> 100 µM	> 100 µM	> 100 µM	> 100 µM	> 100 µM		> 100 µM	> 100 µM	> 100 µM	> 100 µM	> 100 µM	> 100 µM	> 100 µM	> 100 µM	> 100 µM
CCCC[C@@H]1CCN2C[C@@H](O)[C@@H](O)[C@@H]2[C@H]1O	> 100 µM	> 100 µM	> 100 µM	> 100 µM	> 100 µM	> 100 µM	> 100 µM	> 100 µM	> 100 µM	> 100 µM	> 100 µM	> 100 µM	> 100 µM		> 100 µM	> 100 µM	> 100 µM	> 100 µM	> 100 µM	> 100 µM
CNc1ccc(C(=O)CC(O)CCC(C)C2OC(=O)CC(O)CC(=O)CC(O)CC(O)CC(O)CC(O)CC3(O)CC(O)C(C(=O)NCCN(C)C)C(CC(OC4OC(C)C(O)C(NC(=O)CN5CCN(C)CC5)C4O)/C=C/C=C/C=C/C=C\C=C/C=C/C=C/C2C)O3)cc1 (stereo not given)		> 100 µM		7.8 µM	> 100 µM	> 100 µM	> 100 µM	> 100 µM	> 100 µM	> 100 µM		> 100 µM		> 100 µM	71 µM	> 100 µM	> 100 µM	> 100 µM	> 100 µM	> 100 µM
COc1cc(C(=O)n2c3ccc(Br)cc3c3nc4ccccc4nc32)cc(OC)c1OC	> 100 µM	> 100 µM	> 100 µM		> 100 µM	> 100 µM	> 100 µM	> 100 µM	> 100 µM	> 100 µM	> 100 µM	> 100 µM	> 100 µM	> 100 µM	> 100 µM	> 100 µM	> 100 µM	> 100 µM	> 100 µM	> 100 µM
Nc1ncnc2c1ccn2C/C=C\CO	> 100 µM	> 100 µM	> 100 µM	> 100 µM	> 100 µM	> 100 µM	> 100 µM	> 100 µM	> 100 µM	> 100 µM	> 100 µM	> 100 µM	> 100 µM	> 100 µM	> 100 µM	> 100 µM	> 100 µM	> 100 µM		> 100 µM
CNC(C#N)c1ccc(OC)cc1 (stereo not given)	> 100 µM	> 100 µM	> 100 µM	> 100 µM	> 100 µM	> 100 µM	> 100 µM	> 100 µM	> 100 µM	> 100 µM	> 100 µM	> 100 µM			> 100 µM	> 100 µM	> 100 µM	> 100 µM	> 100 µM	> 100 µM
O=C(C=P(c1ccccc1)(c1ccccc1)c1ccccc1)c1ccc(-c2cccc([N+](=O)[O-])c2)s1	74.2 µM	> 100 µM	> 100 µM	81.9 µM	> 100 µM	81.4 µM	> 100 µM	> 100 µM	> 100 µM	> 100 µM	> 100 µM	> 100 µM	54.9 µM	> 100 µM		> 100 µM	> 100 µM	> 100 µM		> 100 µM
N#Cc1nc2ccccc2nc1N1CCN(c2ccc([N+](=O)[O-])cc2)CC1	> 100 µM	> 100 µM	> 100 µM	> 100 µM	> 100 µM	> 100 µM	> 100 µM	> 100 µM	> 100 µM	> 100 µM	> 100 µM	> 100 µM	> 100 µM	> 100 µM	> 100 µM	> 100 µM		> 100 µM	> 100 µM	> 100 µM
